According to patent US11027245B1, “Process for continuous dissolution of a solid in a reaction medium” (Evonik Operations GmbH, priority 2017, dated 2021):

Experiment: Dissolution of phenothiazine fixed bed in acetic acid (UV absorption at 390 nm)
Assay type: physicochemical
Conditions: saturation concentration
Text: The dissolution of phenothiazine in acetic acid according to the process according to the invention was investigated by experiment. FIG. 2 illustrates the relevant experimental setup.
A phenothiazine fixed bed is placed in a temperature-controllable chromatography column (Götec-Labor GmbH, Superformance 300-16, length 300 mm, internal diameter 16 mm, double-walled for thermostatting, 20 μm type F filter frit). Pump P-01 conveys acetic acid from the reservoir vessel through the fixed bed temperature-controlled to 20° C. into a waste vessel. Pump P-02 diverts a sample stream to the UV detector. The phenothiazine concentration is determined by absorption measurement at 390 nm. The detector is previously calibrated with a phenothiazine solution of known concentration.
A first experiment was performed with a flow rate of 12.4 cm/min at a volume flow of 25.0 ml/min. […] The measured detector extinction (dashed) periodically deviates from the concentration at the bed outlet since to protect the measuring cell from solids particles the solution was not passed through the detector upon startup. In the further course of the experiment calibration solutions were passed through the detector as a control. The “corrected bed outlet concentration” (solid curve beginning at a concentration of 0.000) was calculated over the experimental duration via linear interpolation and extrapolation. […]

c1ccc2c(c1)Nc1ccccc1S2 [phenothiazine]
Max conc (phenothiazine) (Experiment 1, fixed bed thermostatted 20.0 °C, flow rate 12.4 cm/min, volume flow 25.0 ml/min): 1.23 % by wt. | Max conc (phenothiazine) (Experiment 2, fixed bed thermostatted 20.0 °C, flow rate 11.0 cm/min, volume flow 22.2 ml/min): 1.22 % by wt.
